Experimental data published in ChEMBL document CHEMBL1154174, “Phytochemical investigation of labdane diterpenes from the rhizomes of Hedychium spicatum and their cytotoxic activity” (Bioorg Med Chem Lett, 2009).
pIC50: −log10 of the molar value.

Key:
Assay type in all cases: functional, cell-based; call rule not given here
A549 = assay: Cytotoxicity against human A549 cells by MTT assay
A-375 = assay: Cytotoxicity against human A375 cells by MTT assay
THP-1 = assay: Cytotoxicity against human THP1 cells by MTT assay
HL-60 = assay: Cytotoxicity against human HL60 cells by MTT assay; details: for pIC50: Homo sapiens, HL-60, read-out: IC50

With CC1(C)CCC[C@]2(C)[C@@H](/C=C/c3ccoc3)C(CO)=CC(=O)[C@@H]12 [YUNNACORONARIN D] the pIC50 (A549) was 4.29, the pIC50 (A-375) was 4.38 and the pIC50 (THP-1) was 4.23. For the same compound, the pIC50 (HL-60) was 4.44.

With CC1=CC(=O)[C@H]2C(C)(C)CCC[C@]2(C)[C@H]1/C=C/C(=O)O [SPICATANOIC ACID] the pIC50 (A549) was 4.28, the pIC50 (A-375) was 4.25 and the pIC50 (THP-1) was 4.41. For the same compound, the pIC50 (HL-60) was 4.16.

C=C1CC[C@H]2C(C)(C)CCC[C@]2(C)[C@H]1/C=C/c1ccoc1 [CORONARIN E] showed a pIC50 (A549) of 4.27, a pIC50 (A-375) of 4.44 and a pIC50 (THP-1) of 4.47. The pIC50 (HL-60) was 4.51.

Compound O=c1cc(-c2ccccc2)oc2cc(O)cc(O)c12 [CHRYSIN] has a pIC50 (A549) of 4.70, a pIC50 (A-375) of 4.53 and a pIC50 (THP-1) of 4.63. It also gave a pIC50 (HL-60) of 4.47.

COc1cc([C@@H]2c3cc4c(cc3[C@@H](O[C@@H]3O[C@@H]5CO[C@@H](C)O[C@H]5[C@H](O)[C@H]3O)[C@H]3COC(=O)[C@H]23)OCO4)cc(OC)c1O [ETOPOSIDE] gave a pIC50 (THP-1) of 5.74 and a pIC50 (HL-60) of 5.67.

For CCOC(=O)/C=C/c1ccccc1 [ETHYL CINNAMATE], the pIC50 (A549) was 4.30, the pIC50 (A-375) was 4.50 and the pIC50 (THP-1) was 4.38. It also gave a pIC50 (HL-60) of 4.45.

With C=C1CC[C@H]2C(C)(C)CCC[C@]2(C)[C@H]1C the pIC50 (A549) was 4.21, the pIC50 (A-375) was 4.30 and the pIC50 (THP-1) was 4.27. The IC50 (HL-60; hl-60) was “Not Active”.

For CCOC(=O)/C=C/c1ccc(OC)cc1 [4-METHOXY ETHYL CINNAMATE], the pIC50 (A-375) was 4.50, the pIC50 (THP-1) was 4.47 and the pIC50 (HL-60) was 4.53.

For CC1(C)CCC[C@]2(C)[C@@H](/C=C/c3ccoc3)C(C=O)=C(O)C(=O)[C@@H]12, the pIC50 (A549) was 4.42, the pIC50 (A-375) was 4.67 and the pIC50 (THP-1) was 4.63. For the same compound, the pIC50 (HL-60) was 4.80.
